Assay results from publication PMC9730820, “Near-infrared-dye labeled tumor vascular-targeted dimer GEBP11 peptide for image-guided surgery in gastric cancer” (Frontiers in Oncology, 2022).
Where a SMILES comes first, the peptide text is derived from it. Bridges are numbered along the chain shown (N, C = ends). [ ]: non-standard residue; d: D form. The star is where a group is joined. X1 = CC[N+]1=C(C=CC=CC=C2N(CCCCCC(=O)*)c3ccc4c(S(=O)(=O)O)cc(S(=O)(=O)O)cc4c3C2(C)C)C(C)(C)c2c1ccc1c(S(=O)(=O)O)cc(S(=O)(=O)[O-])cc21; Ahx = NCCCCCC(=O)O

Key:
[1] = Ex vivo biodistribution of NIR signal in tumor and main organs; set-up: species or system athymic nude mice; conditions: mouse, in vivo, iv, 200 ul of 5 uM probe in PBS per mouse; ex vivo NIR signal, kidney relative to muscle, 24 h post-injection, n=3, bar label of Figure 3C
Description: (§1) Subcutaneous tumor xenograft models were used to detect the biodistribution of NIR signals. Mice were euthanized at 24h after injection of the labeled probes or free Cy5.5. All assays were done in triplicates. Then tumor xenografts and main organs (heart, lung, kidney, bone, muscle, brain, spleen, liver, skin and intestines) were harvested. Living Image version 4.7.3 Software (IVIS) was used to quantify the NIR fluorescence intensity at selected ROIs. All ROI data were collected after subtracting background autofluorescence. Differences in the fluorescence intensities of the ROIs between different probes were statistically analyzed.

[2] = tested on: SGC7901 subcutaneous xenograft; assay: as above; set-up: species or system athymic nude mice; conditions: tumors and major organs harvested at 24h after injection
Description: as §1

[3] = tested on: Co-HUVECs (HUVECs co-cultured with SGC7901 cells); assay: In vitro binding of Cy5.5 labeled GEBP11 probes, confocal fluorescence, with competitive inhibition by unlabeled GEBP11; format: cell-based, human; conditions: 1μM probe, 6h, 37°C
Description: (§2) SGC7901 cells and HUVECs were cocultured as previously described ([18]). Co- HUVECs (co-cultured HUVECs), HUVECs and SGC7901 cells were harvested at log-growth phase and characterized by bench top fluorescent microscopy. Cells were incubated with 1μM GEBP11-Cy5.5 or (GEBP11)2-ACP-Cy5.5 for 6h at 37°C in a humidified atmosphere with 5% CO2. Binding affinity of the probes to cultured cells were detected by laser scanning confocal microscope (FV3000, Olympus, Japan). Nucleus were re-stained with ProLong™ Gold Antifade Mountant with DAPI (Invitrogen, USA) at room temperature. For binding specificity assessment, cells were pretreated with 25μM unlabeled GEBP11 for 30min at 37°C before incubating with the labeled probes.

[4] = tested on: tumor vascular epithelial cells (CD31); assay: Fluorescence microscopy co-localisation of probe with CD31 in resected tumor sections; conditions: frozen sections of resected samples, FITC-labeled anti-mouse CD31, confocal fluorescence microscopic examination
Description: Resected samples were embedded in optimum cutting temperature (OCT) compound (Leica, Germany), and 10μm-thick frozen tissue sections were cut on a cryostat microtome (Leica, Germany). The sections were fixed immediately with precooled isoacetone for 30min and stored at –20 °C. Hematoxylin and Eosin (H&E) staining was used for histological analysis. Tumor margins defined by H&E staining and NIR fluorescence were compared. All slides were scanned by using Pannoramic-250 Flash II slide-scanner (3D-Histech, Budapest, Hungary) and analyzed by Case viewer software (3D-Histech, Budapest, Hungary). Mouse tumor vascular endothelial cells were stained by FITC-labeled rat anti-mouse CD31 (89C2) antibody (CST, Boston, USA). Fluorescence microscopy was used to validate the colocalization of (GEBP11)2-ACP-Cy5.5 probe and tumor microvessel. Fluorescence microscopic images were acquired at 100x magnification by using Echo Revolve upside-down integrated fluorescence microscope (ECHO, USA).

[5] = tested on: SGC7901-Luc orthotopic gastric cancer xenograft; assay: Live NIR fluorescence imaging in orthotopic gastric cancer xenograft model
Description: All animal experiments were conducted in compliance with protocols approved by the Institute of Animal Use Committee of Air Force Medical University. All gastric cancer xenograft models were established in 6–8 week old female athymic nude mice. The SGC7901-Luc or SGC7901-GFP cell suspension at a concentration of 2 × 10^6 cells/mL was prepared. For subcutaneous xenograft model, SGC7901-GFP cells suspension (100μL/mouse) were injected subcutaneously into the right upper limb (for in vivo binding affinity test) or lower flank of mouse (for in vivo biodistribution assay). The orthotopic gastric cancer xenograft models were established as described previously ([21]), In brief, open abdominal surgery was performed on the mice under general anesthesia, SGC7901-Luc cells suspension (100μL/mouse) were injected into the subserosa layer of the stomach.
Tumor growth was monitored by Caliper IVIS Lumina II (PerkinElmer, MA, USA). GFP fluorescence imaging was performed in subcutaneous xenograft model. Bioluminescence imaging (BLI) was performed to monitor tumor growth in the orthotopic xenograft models. Because of its higher penetrability and sensitivity, peritoneal metastasis can be visualized clearly as well. Before BLI was acquired, mice were injected with D-luciferin (150 mg/kg) by intraperitoneal injection and anesthetized with 2% isoflurane. Living Image software 4.7.3 (IVIS) was used to quantify bioluminescence signals.
Xenograft mice were injected with 200 ul GEBP11-Cy5.5, (GEBP11)2-ACP-Cy5.5 or free Cy5.5 (5 µM in PBS) via tail veins. Live NIR fluorescence imaging was performed at different time points. NIR Fluorescence intensity was quantified by region-of-interest (ROI) measurement using Living Image software 4.7.3 (IVIS).

[6] = tested on: SGC7901 subcutaneous xenograft; assay: Live NIR fluorescence imaging in subcutaneous gastric cancer xenograft model; format: in vivo, athymic nude mice
From the text: All mice were fed irradiated alfalfa-free rodent diet (Envigo Teklad, Madison, WI) to reduce background in stomach and gut for one week prior to the imaging experiments. The mice models were used for in vivo imaging and surgical procedures when xenograft diameter reached 5 to 10 mm.

[7] = tested on: SGC7901-Luc orthotopic gastric cancer xenograft; assay: Real-time NIR fluorescence imaging-guided resection; format: in vivo, athymic nude mice; conditions: surgery 24h after probe injection, checked by BLI
Description: Orthotopic gastric cancer xenograft mice were anesthetized with a ketamine/xylazine mixture via intraperitoneal injection 24h after injection of (GEBP11)2-ACP-Cy5.5 probe. Real-time NIR fluorescence imaging was used to guide the removal of the primary cancer lesion and potential metastatic lesions. After resection, all surgical specimens and surgical beds were examined by NIR fluorescence imaging to confirm complete resection. To compare the efficacy of the dimer GEBP11 NIR imaging, BLI imaging pictures were taken before and after resection, the findings of BLI imaging were kept blind to the researcher who performed the surgery.

SGC7901 cells = assay: In vitro binding of Cy5.5 labeled GEBP11 probes, confocal fluorescence; format: cell-based, human; conditions: 1μM probe, 6h, 37°C, laser scanning confocal microscope
Description: as §2

HUVECs = assay: as above; format: cell-based, human; conditions: 1μM probe, 6h, 37°C, laser scanning confocal microscope
Description: as §2

Row | Structure (SMILES) | tissue to tissue ratio at 24 h [1] | Distribution of the NIR probe in tumor and organs, ex vivo fluorescence imaging [2] | Signal intensity compared with the mono probe ([3]; confocal microscope) | Fluorescence signal on Co-HUVECs after incubation with probe ([3]; laser scanning confocal microscope) | Co-localisation of probe fluorescence with CD31 [4] | Time at which signal intensity at the tumor site peaked ([5]; 200 ul of 5 µM probe via tail vein, IVIS ROI) [h] | NIR fluorescence signal at the tumor sites at 6h compared with GEBP11-Cy5.5 or free Cy5.5 ([5]; 6h after injection) | Time at which NIR fluorescence signal at the tumor site peaked ([6]; 200 ul of 5 µM probe in PBS via tail vein, observed 0-96 h, IVIS ROI) [h] | Residual cancer lesion after NIR-guided resection [7] | Fluorescence signal on SGC7901 after incubation with probe (SGC7901 cells) | Fluorescence signal on HUVECs after incubation with probe (HUVECs) | Course of signal intensity at the tumor site ([5]; 200 ul of 5 µM via tail vein) | NIR signal at the tumor sites and site of accumulation, live imaging ([6]; 200 ul of 5 µM in PBS via tail vein)
1 | CC[N+]1=C(C=CC=CC=C2N(CCCCCC(=O)N[C@H]3CSSC[C@@H](C(=O)NCCCCCC(=O)N[C@H]4CSSC[C@@H](C(=O)O)NC(=O)[C@H](CCSC)NC(=O)[C@H](CC(C)C)NC(=O)[C@H](Cc5ccc(O)cc5)NC(=O)[C@H](CO)NC(=O)[C@H](CC(N)=O)NC(=O)[C@H](CCCCN)NC(=O)[C@H]([C@@H](C)O)NC4=O)NC(=O)[C@H](CCSC)NC(=O)[C@H](CC(C)C)NC(=O)[C@H](Cc4ccc(O)cc4)NC(=O)[C@H](CO)NC(=O)[C@H](CC(N)=O)NC(=O)[C@H](CCCCN)NC(=O)[C@H]([C@@H](C)O)NC3=O)c3ccc4c(S(=O)(=O)O)cc(S(=O)(=O)O)cc4c3C2(C)C)C(C)(C)c2c1ccc1c(S(=O)(=O)O)cc(S(=O)(=O)[O-])cc21 [(GEBP11)2-ACP-Cy5.5] (X1-CTKNSYLMC[Ahx]CTKNSYLMC-OH; disulfide 1-9, 11-19; N-terminus and C-terminus assumed) | 1.41 | Significant enrichment | much higher signal intensity than GEBP11-Cy5.5 | strong fluorescence signal | co-localize with CD31 | 24 | stronger NIR fluorescence signal | 24 | No residual cancer lesion could be detected | only scarce signal | only scarce signal |  | 
2 | CCN1\C(=C/C=C/C=C/C2=[N+](CCCCCC(=O)O)c3ccc4c(S(=O)(=O)O)cc(S(=O)(=O)O)cc4c3C2(C)C)C(C)(C)c2c1ccc1c(S(=O)(=O)[O-])cc(S(=O)(=O)O)cc21 [Free Cy5.5, Cy5.5, reference compound] |  | found in the kidney, without enrichment in the tumor |  |  |  |  |  |  |  |  |  | dropped rapidly after 6h | accumulated mainly in the kidneys, and no significant signal was detected at the tumor sites
